ChEMBL document CHEMBL5303573, “Mapping human microbiome drug metabolism by gut bacteria and their genes” (Nature, 2019)

Experiments:
[1] = The drug is tested on Bacteroides finegoldii strain: DSM17565 for biotransformation. The drug concentrations were measured before and after a 12-h incubation by liquid-chromatography-coupled mass spectrometry (LC–MS); conditions: 2 µM
[2] = The drug is tested on Dorea formicigenerans strain: ATCC27755 for biotransformation. The drug concentrations were measured before and after a 12-h incubation by liquid-chromatography-coupled mass spectrometry (LC–MS); conditions: 2 µM
[3] = The drug is tested on Anaerococcus hydrogenalis strain: DSM7454 for biotransformation. The drug concentrations were measured before and after a 12-h incubation by liquid-chromatography-coupled mass spectrometry (LC–MS); conditions: 2 µM
[4] = The drug is tested on Odoribacter splanchnicus strain: fecal isolate for biotransformation. The drug concentrations were measured before and after a 12-h incubation by liquid-chromatography-coupled mass spectrometry (LC–MS); conditions: 2 µM
[5] = The drug is tested on Ruminococcus torques strain: ATCC27756 for biotransformation. The drug concentrations were measured before and after a 12-h incubation by liquid-chromatography-coupled mass spectrometry (LC–MS); assay type: ADME; set-up: dose 2 uM, timepoint 0 vs 12 hours; conditions: 2 µM
[6] = The drug is tested on Bacteroides caccae strain: ATCC43185 for biotransformation. The drug concentrations were measured before and after a 12-h incubation by liquid-chromatography-coupled mass spectrometry (LC–MS); conditions: 2 µM
[7] = The drug is tested on Bacteroides sp. WH2 strain: WH2 for biotransformation. The drug concentrations were measured before and after a 12-h incubation by liquid-chromatography-coupled mass spectrometry (LC–MS); conditions: bacteroides sp. wh2, 12 h, 2 µM
[8] = The drug is tested on Collinsella intestinalis strain: DSM13280 for biotransformation. The drug concentrations were measured before and after a 12-h incubation by liquid-chromatography-coupled mass spectrometry (LC–MS); conditions: 2 µM
[9] = bacteroides intestinalis, 12 h, 2 µM
Description: The drug is tested on Bacteroides intestinalis strain: DSM17393 for biotransformation. The drug concentrations were measured before and after a 12-h incubation by liquid-chromatography-coupled mass spectrometry (LC–MS)

[10] = The drug is tested on Bacteroides uniformis strain: ATCC8492 for biotransformation. The drug concentrations were measured before and after a 12-h incubation by liquid-chromatography-coupled mass spectrometry (LC–MS); conditions: 2 µM
[11] = The drug is tested on Providencia stuartii strain: ATCC25827 for biotransformation. The drug concentrations were measured before and after a 12-h incubation by liquid-chromatography-coupled mass spectrometry (LC–MS); conditions: 2 µM
[12] = The drug is tested on Providencia rettgeri strain: DSM1131 for biotransformation. The drug concentrations were measured before and after a 12-h incubation by liquid-chromatography-coupled mass spectrometry (LC–MS); assay type: ADME; set-up: dose 2 uM, timepoint 0 vs 12 hours; conditions: 2 µM
[13] = The drug is tested on Bifidobacterium ruminantium strain: fecal isolate for biotransformation. The drug concentrations were measured before and after a 12-h incubation by liquid-chromatography-coupled mass spectrometry (LC–MS); conditions: 2 µM
[14] = bacteroides fragilis, 12 h, 2 µM
Description: The drug is tested on Bacteroides fragilis strain: DS-208 for biotransformation. The drug concentrations were measured before and after a 12-h incubation by liquid-chromatography-coupled mass spectrometry (LC–MS)

[15] = The drug is tested on Bacteroides vulgatus strain: ATCC8482 for biotransformation. The drug concentrations were measured before and after a 12-h incubation by liquid-chromatography-coupled mass spectrometry (LC–MS); conditions: phocaeicola vulgatus, 2 µM
[16] = parabacteroides johnsonii, 12 h, 2 µM
Description: The drug is tested on Parabacteroides johnsonii strain: DSM18315 for biotransformation. The drug concentrations were measured before and after a 12-h incubation by liquid-chromatography-coupled mass spectrometry (LC–MS)

[17] = The drug is tested on Bacteroides coprophilus strain: DSM18228 for biotransformation. The drug concentrations were measured before and after a 12-h incubation by liquid-chromatography-coupled mass spectrometry (LC–MS); conditions: 2 µM
[18] = The drug is tested on Bacteroides xylanisolvens strain: DSM18836 for biotransformation. The drug concentrations were measured before and after a 12-h incubation by liquid-chromatography-coupled mass spectrometry (LC–MS); conditions: 2 µM
[19] = akkermansia muciniphila, 12 h, 2 µM
Description: The drug is tested on Akkermansia muciniphila strain: ATCC BAA-835 for biotransformation. The drug concentrations were measured before and after a 12-h incubation by liquid-chromatography-coupled mass spectrometry (LC–MS)

SMILES	Bacterial Biotransformation [1]	Bacterial Biotransformation [2]	Bacterial Biotransformation [3]	Bacterial Biotransformation [4]	Bacterial Biotransformation [5]	Bacterial Biotransformation [6]	Bacterial Biotransformation [7]	Bacterial Biotransformation [8]	Bacterial Biotransformation [9]	Bacterial Biotransformation [10]	Bacterial Biotransformation [11]	Bacterial Biotransformation [12]	Bacterial Biotransformation [13]	Bacterial Biotransformation [14]	Bacterial Biotransformation [15]	Bacterial Biotransformation [16]	Bacterial Biotransformation [17]	Bacterial Biotransformation [18]	Bacterial Biotransformation [19]
CN1CCC(OC(c2ccccc2)c2ccccc2)CC1	Compound NOT metabolized	Compound NOT metabolized	Compound NOT metabolized	Compound NOT metabolized	Compound NOT metabolized	Compound NOT metabolized	Compound NOT metabolized	Compound NOT metabolized	Compound NOT metabolized	Compound NOT metabolized	Compound NOT metabolized	Compound NOT metabolized	Compound metabolized	Compound NOT metabolized	Compound NOT metabolized	Compound NOT metabolized	Compound NOT metabolized	–	–
CCN(CC)CC#CCOC(=O)C(O)(c1ccccc1)C1CCCCC1.Cl (stereo not drawn) [OXYBUTYNIN CHLORIDE]	–	Compound metabolized	Compound NOT metabolized	Compound metabolized	–	Compound NOT metabolized	Compound NOT metabolized	Compound NOT metabolized	Compound NOT metabolized	Compound metabolized	Compound NOT metabolized	Compound NOT metabolized	Compound metabolized	Compound NOT metabolized	Compound metabolized	Compound NOT metabolized	–	Compound metabolized	–
CN1CCC(=C2c3ccccc3CC(=O)c3sccc32)CC1.O=C(O)/C=C/C(=O)O [KETOTIFEN FUMARATE]	Compound NOT metabolized	Compound NOT metabolized	Compound NOT metabolized	Compound NOT metabolized	Compound NOT metabolized	Compound NOT metabolized	Compound NOT metabolized	Compound NOT metabolized	Compound NOT metabolized	Compound NOT metabolized	Compound NOT metabolized	Compound NOT metabolized	Compound NOT metabolized	Compound NOT metabolized	–	Compound NOT metabolized	Compound NOT metabolized	Compound NOT metabolized	Compound NOT metabolized
Cc1nc(Nc2ncc(C(=O)Nc3c(C)cccc3Cl)s2)cc(N2CCN(CCO)CC2)n1.O [DASATINIB]	Compound metabolized	Compound NOT metabolized	Compound NOT metabolized	Compound NOT metabolized	Compound NOT metabolized	Compound NOT metabolized	Compound NOT metabolized	Compound NOT metabolized	Compound metabolized	Compound NOT metabolized	Compound NOT metabolized	Compound NOT metabolized	Compound metabolized	Compound metabolized	–	Compound metabolized	Compound NOT metabolized	Compound NOT metabolized	Compound metabolized
